Measurements as given in article PMC4461516 (Bioorganic & medicinal chemistry, 2015).
Like-named read-outs stand apart in the source and are kept apart here.

How the values were obtained:
[1] = test system: subcutaneous Metrazol (scMet) seizure; conditions: cited from earlier work
[2] = test system: behavioral toxicity; conditions: rat, po; cited from earlier work
[3] = molecular target: T1, Na+ currents in CAD cells (mostly Nav1.7) (Mus musculus, UniProt Q62205); conditions: read-out: Slow inactivation IC50, at −50 mV; cited from earlier work
T1 sequence (Q62205 whole entry): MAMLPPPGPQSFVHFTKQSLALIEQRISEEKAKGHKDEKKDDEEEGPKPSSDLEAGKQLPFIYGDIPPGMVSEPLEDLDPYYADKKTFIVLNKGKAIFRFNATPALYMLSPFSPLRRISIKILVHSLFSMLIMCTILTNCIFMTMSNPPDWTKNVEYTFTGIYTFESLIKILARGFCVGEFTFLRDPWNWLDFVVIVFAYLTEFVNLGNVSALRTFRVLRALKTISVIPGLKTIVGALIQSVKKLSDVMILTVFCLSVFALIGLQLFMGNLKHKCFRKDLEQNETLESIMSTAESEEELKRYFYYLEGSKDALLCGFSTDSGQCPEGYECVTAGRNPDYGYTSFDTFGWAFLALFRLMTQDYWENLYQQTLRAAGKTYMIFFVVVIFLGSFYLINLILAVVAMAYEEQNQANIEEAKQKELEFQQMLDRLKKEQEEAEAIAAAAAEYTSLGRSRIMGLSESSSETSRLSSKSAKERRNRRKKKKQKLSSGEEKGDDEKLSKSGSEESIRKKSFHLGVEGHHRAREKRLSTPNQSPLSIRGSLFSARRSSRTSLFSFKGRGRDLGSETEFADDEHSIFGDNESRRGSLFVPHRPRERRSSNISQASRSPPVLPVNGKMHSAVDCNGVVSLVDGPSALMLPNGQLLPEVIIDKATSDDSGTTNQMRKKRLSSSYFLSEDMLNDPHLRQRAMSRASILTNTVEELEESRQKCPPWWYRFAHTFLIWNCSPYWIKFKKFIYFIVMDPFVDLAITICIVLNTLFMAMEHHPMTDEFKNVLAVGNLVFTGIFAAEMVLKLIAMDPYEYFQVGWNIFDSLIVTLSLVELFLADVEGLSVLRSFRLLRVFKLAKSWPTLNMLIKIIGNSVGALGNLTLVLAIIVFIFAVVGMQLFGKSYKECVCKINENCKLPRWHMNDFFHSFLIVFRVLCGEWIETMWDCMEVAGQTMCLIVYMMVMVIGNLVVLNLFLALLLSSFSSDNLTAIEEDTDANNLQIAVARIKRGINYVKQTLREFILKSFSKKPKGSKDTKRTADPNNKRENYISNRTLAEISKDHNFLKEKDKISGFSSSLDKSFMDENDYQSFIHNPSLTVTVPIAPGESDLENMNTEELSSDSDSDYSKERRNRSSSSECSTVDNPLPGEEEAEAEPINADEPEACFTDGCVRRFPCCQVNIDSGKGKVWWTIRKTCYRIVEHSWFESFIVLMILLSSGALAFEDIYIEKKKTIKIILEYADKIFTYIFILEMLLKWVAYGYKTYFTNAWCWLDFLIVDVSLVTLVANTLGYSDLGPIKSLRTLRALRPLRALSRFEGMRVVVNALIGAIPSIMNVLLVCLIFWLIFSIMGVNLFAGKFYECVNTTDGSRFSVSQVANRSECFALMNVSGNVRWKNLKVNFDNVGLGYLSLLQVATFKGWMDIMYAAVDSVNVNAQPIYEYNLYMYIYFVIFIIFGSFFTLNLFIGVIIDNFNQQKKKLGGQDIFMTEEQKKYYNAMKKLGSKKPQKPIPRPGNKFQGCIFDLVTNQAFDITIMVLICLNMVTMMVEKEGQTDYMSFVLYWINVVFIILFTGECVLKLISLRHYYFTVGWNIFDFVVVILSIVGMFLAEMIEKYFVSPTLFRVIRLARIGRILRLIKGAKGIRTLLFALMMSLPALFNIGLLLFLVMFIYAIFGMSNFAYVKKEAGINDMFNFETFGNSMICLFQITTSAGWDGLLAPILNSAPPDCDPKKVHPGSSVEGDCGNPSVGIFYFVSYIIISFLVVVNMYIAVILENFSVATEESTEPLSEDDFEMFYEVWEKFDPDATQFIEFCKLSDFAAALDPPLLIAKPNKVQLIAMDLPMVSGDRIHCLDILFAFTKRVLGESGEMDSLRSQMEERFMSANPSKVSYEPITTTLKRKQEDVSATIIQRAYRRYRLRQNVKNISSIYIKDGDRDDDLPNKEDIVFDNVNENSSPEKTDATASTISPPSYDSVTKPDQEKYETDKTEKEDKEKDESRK

[4] = test system: 6 Hz (32 mA) psychomotor seizure; assay: 6 Hz; format: in vivo, mice; conditions: Mus musculus, ip, read-out: 6 Hz ED50
[5] = Rotorod test for neurological impairment, mice ip; conditions: mouse, in vivo
[6] = test system: maximal electroshock seizure; assay: Maximal electroshock seizure; format: in vivo, mice; conditions: Mus musculus, ip, read-out: MES ED50
[7] = test system: 6 Hz (32 mA) psychomotor seizure; conditions: mice, ip, time (h) in brackets; cited from earlier work
[8] = test system: maximal electroshock seizure; conditions: rat, po, cited from earlier work
[9] = test system: voltage-gated sodium channels (Nav1.1, Nav1.2, Nav1.3, Nav1.6) in rat embryonic cortical neurons; assay: Whole-cell patch-clamp of Na+ currents in rat embryonic cortical neurons; format: cell-based; conditions: 10 μM, vs 0.1% DMSO control
[10] = molecular target: T2, CYP1A2 (Homo sapiens, UniProt P05177); assay: CYP450 inhibition panel: CYP1A2; format: in vitro ADME; conditions: 10 μM; data not shown
T2 sequence (P05177 1-516): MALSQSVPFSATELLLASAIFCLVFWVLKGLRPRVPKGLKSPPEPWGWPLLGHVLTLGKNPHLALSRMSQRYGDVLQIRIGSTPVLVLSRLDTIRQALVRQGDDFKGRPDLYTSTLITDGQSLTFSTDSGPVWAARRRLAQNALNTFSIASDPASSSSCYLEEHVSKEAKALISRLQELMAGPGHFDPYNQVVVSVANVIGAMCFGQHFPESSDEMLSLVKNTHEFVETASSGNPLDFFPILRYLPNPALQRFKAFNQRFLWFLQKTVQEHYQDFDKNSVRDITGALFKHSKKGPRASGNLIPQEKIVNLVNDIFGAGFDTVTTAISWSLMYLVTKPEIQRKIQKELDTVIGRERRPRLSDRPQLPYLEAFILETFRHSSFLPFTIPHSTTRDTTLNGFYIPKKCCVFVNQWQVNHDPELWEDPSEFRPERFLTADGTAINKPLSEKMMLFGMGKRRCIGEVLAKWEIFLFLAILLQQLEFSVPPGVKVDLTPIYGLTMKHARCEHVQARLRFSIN

[11] = molecular target: T1, Na+ currents in CAD cells (mostly Nav1.7); assay: Whole-cell patch-clamp of Na+ currents in CAD cells; format: cell-based; conditions: any concentration tested, control V1/2 −19.5 ± 2.8 mV
[12] = test system: CYP3A4/5; assay: CYP450 inhibition panel: CYP3A4/5; format: in vitro ADME, human; conditions: 10 μM; data not shown
[13] = molecular target: T3, CYP2C8 (Homo sapiens, UniProt P10632); assay: CYP450 inhibition panel: CYP2C8; format: in vitro ADME; conditions: 10 μM; data not shown
T3 sequence (P10632 1-490): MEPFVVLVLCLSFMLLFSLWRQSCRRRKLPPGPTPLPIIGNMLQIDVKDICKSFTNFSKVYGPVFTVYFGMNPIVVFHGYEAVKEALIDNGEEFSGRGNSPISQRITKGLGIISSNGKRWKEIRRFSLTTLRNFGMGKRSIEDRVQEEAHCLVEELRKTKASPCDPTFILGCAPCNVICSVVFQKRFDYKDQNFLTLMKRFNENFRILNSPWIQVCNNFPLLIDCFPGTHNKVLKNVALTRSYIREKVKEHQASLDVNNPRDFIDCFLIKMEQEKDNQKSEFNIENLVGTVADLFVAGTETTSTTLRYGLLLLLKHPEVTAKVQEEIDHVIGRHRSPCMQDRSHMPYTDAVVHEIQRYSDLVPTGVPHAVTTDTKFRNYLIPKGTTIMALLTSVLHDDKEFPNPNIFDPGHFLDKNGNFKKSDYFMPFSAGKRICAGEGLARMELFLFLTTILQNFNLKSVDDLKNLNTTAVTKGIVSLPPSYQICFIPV

[14] = molecular target: CYP2D6 (Homo sapiens, UniProt P10635); assay: CYP450 inhibition panel: CYP2D6; format: in vitro ADME; conditions: 10 μM; data not shown
Chain of CYP2D6 (P10635 whole entry): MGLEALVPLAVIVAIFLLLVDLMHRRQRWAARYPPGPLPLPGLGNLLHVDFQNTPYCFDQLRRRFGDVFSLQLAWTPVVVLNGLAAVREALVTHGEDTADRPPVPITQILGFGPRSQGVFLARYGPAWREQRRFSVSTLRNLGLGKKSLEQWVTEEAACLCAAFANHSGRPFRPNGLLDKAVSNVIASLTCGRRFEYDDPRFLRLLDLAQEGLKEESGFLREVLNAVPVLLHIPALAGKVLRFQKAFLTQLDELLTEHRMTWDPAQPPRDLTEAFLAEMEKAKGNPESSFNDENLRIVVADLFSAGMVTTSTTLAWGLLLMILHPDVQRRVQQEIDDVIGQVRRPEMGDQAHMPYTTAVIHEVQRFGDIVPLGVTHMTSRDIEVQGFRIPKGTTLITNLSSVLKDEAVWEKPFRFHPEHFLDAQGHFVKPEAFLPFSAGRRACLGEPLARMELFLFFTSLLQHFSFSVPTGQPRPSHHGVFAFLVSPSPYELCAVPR

[15] = molecular target: CYP2C9 (Homo sapiens, UniProt P11712); assay: CYP450 inhibition panel: CYP2C9; format: in vitro ADME; conditions: 10 μM; data not shown
Chain of CYP2C9 (P11712 whole entry): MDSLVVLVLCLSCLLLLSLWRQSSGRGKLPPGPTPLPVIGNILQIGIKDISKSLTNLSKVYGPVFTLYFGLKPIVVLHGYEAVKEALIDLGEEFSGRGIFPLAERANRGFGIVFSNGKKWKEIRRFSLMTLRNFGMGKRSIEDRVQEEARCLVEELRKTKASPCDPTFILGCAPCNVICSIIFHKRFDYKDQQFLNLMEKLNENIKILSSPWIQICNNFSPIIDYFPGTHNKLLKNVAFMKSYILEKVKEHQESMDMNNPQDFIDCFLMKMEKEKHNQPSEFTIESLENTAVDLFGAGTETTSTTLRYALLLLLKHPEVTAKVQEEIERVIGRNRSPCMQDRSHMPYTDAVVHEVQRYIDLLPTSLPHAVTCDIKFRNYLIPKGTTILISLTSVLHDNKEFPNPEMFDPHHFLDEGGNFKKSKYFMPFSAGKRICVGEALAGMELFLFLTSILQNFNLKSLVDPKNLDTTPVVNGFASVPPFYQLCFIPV

[16] = molecular target: hERG K+ channel (Homo sapiens, UniProt Q12809); assay: hERG K+ channel activity; format: cell-based; conditions: 30 μM; Patch Express; data not shown
Chain of hERG K+ channel (Q12809 whole entry): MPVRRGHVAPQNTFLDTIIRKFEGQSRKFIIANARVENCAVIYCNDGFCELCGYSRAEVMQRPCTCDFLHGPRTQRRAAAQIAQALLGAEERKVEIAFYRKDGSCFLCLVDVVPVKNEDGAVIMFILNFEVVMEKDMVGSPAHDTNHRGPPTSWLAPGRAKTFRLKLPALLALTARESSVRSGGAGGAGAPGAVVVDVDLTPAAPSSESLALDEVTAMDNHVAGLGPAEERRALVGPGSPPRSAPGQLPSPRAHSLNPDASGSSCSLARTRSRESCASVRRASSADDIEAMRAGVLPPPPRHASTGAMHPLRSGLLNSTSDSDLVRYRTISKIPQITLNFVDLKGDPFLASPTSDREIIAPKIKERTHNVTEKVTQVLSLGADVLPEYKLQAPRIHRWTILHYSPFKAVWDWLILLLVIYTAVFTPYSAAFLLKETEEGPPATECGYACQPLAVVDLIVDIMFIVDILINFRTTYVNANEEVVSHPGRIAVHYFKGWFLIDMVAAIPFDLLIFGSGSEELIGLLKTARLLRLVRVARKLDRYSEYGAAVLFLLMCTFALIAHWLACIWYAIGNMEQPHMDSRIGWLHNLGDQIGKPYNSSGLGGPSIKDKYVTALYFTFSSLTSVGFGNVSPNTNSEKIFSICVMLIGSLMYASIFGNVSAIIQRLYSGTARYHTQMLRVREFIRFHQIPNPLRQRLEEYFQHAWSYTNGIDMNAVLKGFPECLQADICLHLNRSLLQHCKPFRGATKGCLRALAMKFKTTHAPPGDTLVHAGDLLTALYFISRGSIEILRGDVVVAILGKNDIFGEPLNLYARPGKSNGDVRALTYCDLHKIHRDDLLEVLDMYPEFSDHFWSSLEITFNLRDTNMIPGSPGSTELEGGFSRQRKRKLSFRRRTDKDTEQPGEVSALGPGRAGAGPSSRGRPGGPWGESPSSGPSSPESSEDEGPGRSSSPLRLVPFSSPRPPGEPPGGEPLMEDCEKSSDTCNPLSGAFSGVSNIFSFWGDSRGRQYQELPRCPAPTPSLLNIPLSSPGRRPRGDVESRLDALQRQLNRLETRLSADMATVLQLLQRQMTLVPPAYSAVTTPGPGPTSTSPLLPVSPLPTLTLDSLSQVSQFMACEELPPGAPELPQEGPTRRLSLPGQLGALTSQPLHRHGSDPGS

[17] = molecular target: CYP2C19 (Homo sapiens, UniProt P33261); assay: CYP450 inhibition panel: CYP2C19; format: in vitro ADME; conditions: 10 μM; data not shown
Chain of CYP2C19 (P33261 whole entry): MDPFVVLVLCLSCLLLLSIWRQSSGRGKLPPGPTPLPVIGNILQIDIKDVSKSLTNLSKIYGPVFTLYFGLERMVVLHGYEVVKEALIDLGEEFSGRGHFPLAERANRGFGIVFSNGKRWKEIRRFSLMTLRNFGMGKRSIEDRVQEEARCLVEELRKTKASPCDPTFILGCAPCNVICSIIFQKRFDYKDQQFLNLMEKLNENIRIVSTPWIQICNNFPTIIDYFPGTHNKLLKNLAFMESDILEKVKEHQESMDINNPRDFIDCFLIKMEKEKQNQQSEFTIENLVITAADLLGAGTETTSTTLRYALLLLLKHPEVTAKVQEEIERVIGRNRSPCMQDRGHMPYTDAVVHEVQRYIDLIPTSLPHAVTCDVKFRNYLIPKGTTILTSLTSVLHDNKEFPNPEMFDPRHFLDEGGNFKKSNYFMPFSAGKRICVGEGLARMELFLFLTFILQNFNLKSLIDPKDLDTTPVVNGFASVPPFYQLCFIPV

[18] = molecular target: T4, CYP2B6 (Homo sapiens, UniProt P20813); assay: CYP450 inhibition panel: CYP2B6; format: in vitro ADME; conditions: 10 μM; data not shown
T4 sequence (P20813 1-491): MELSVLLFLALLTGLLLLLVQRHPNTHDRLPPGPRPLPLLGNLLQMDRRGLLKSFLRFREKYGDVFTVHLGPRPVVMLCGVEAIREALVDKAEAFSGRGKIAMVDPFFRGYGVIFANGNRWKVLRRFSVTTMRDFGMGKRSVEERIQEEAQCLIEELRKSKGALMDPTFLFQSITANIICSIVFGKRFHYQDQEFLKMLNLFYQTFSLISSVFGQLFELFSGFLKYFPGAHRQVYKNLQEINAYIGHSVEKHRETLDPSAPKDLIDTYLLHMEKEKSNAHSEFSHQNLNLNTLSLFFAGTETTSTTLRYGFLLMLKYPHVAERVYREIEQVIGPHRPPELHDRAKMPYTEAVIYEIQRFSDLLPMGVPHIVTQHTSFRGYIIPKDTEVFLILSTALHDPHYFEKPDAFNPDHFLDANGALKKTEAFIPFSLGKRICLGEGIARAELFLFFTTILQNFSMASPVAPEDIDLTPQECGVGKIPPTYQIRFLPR

[19] = test system: maximal electroshock seizure; conditions: mice, ip; 95% CI in parentheses; cited from earlier work
[20] = test system: maximal electroshock seizure; conditions: rat, ip; 95% CI in parentheses; cited from earlier work

## COC[C@@H](NC(C)=O)C(=O)NCc1ccccc1 [(R)-1, (R)-N-benzyl 2-N-acetamido-3-methoxypropionamide]
[1]
  scMet seizure model: activity: no activity
[2]
  Tox TD50 (behavioral toxicity): >500 [0.5] mg/kg
[3]
  IC50: 85 µM

## COC[C@@H](NC(C)=O)C(=O)NCc1ccc(Oc2ccccc2)cc1 [(R)-3, (R)-N-4′-Phenoxybenzyl 2-N-Acetamido-3-methoxypropionamide]
[4]
  ED50: 10 to 30 mg/kg
[5]
  TD50 at 0.5 h: 30 to 100 mg/kg
[6]
  ED50: 10 to 30 mg/kg

## COC[C@@H](NC(C)=O)C(=O)NCc1ccc(Oc2cccc(F)c2)cc1 [(R)-4]
[7]
  6 Hz ED50: ~10 [0.25–0.5] mg/kg
[2]
  Tox TD50 (behavioral toxicity): >10 [0.25–4.0] mg/kg
[8]
  MES ED50: <10 [0.25–4.0] mg/kg

## COC[C@@H](NC(C)=O)C(=O)NCc1ccc(Oc2cccc(Cl)c2)cc1 [(R)-5, (R)-N-4′-((3″-Chloro)phenoxy)benzyl 2-N-Acetamido-3-methoxypropionamide]
[9]
  Effect on transition of VGSCs to the slow-inactivated state: facilitated the transition of a majority of sodium channels into the slow-inactivated state

## COC[C@@H](NC(C)=O)C(=O)NCc1ccc(Oc2cccc(C(F)(F)F)c2)cc1 [(R)-7, (R)-N-4′-((3″-Trifluoromethyl)phenoxy)benzyl2-N-Acetamido-3-methoxypropionamide]
[4]
  ED50: 10 to 100 mg/kg

## COC[C@@H](NC(C)=O)C(=O)NCc1ccc(Oc2cccc(OC)c2)cc1 [(R)-8, (R)-N-4′-((3″-Methoxy)phenoxy)benzyl 2-N-Acetamido-3-methoxypropionamide]
[4]
  ED50: 30 to 100 mg/kg

## COC[C@@H](NC(C)=O)C(=O)NCc1ccc(Oc2cccc(OC(F)(F)F)c2)cc1 [(R)-9, (R)-N-4′-((3″-Trifluoromethoxy)phenoxy)benzyl2-N-Acetamido-3-methoxypropionamide]
[10]
  Direct inhibition of CYP1A2: little or no direct inhibition
[11]
  Steady-state activation properties vs control: no different
[12]
  Direct inhibition of CYP3A4/5: little or no direct inhibition
[13]
  Direct inhibition of CYP2C8: little or no direct inhibition
[14]
  Direct inhibition of CYP2D6: little or no direct inhibition
[15]
  Direct inhibition of CYP2C9: little or no direct inhibition
[16]
  Effect on hERG K+ channel activity: did not affect
[17]
  Direct inhibition of CYP2C19: little or no direct inhibition
[18]
  Direct inhibition of CYP2B6: little or no direct inhibition

## C[C@H](NCc1ccc(OCc2cccc(F)c2)cc1)C(N)=O [(S)-2, (S)-2-(4′-((3″-fluoro)benzyloxy)benzyl)aminopropionamide]
[8]; 95% CI in parentheses
  MES ED50: 12 (10–14) mg/kg
[3]
  IC50: 13 µM
[19]
  MES ED50: 4.1 (3.0–5.5) mg/kg

## O=C1NC(=O)C(c2ccccc2)(c2ccccc2)N1 [phenytoin]
[20]
  MES ED50: 2.4 (1.4–3.7) mg/kg
[8]; 95% CI in parentheses
  MES ED50: 28 (21–35) mg/kg
